Reference: publication PMC11590367, “Characterization of novel small molecule inhibitors of estrogen receptor-activation function 2 (ER-AF2)” (Breast Cancer Research : BCR, 2024)

T1: ER-LBD (residues 298–554), recombinant, N-terminal His-tag (UniProt P03372 298-554, red fluorescent dye (Protein Labeling Kit RED-NHS 2nd Generation))
T1 construct: Kept with 20 µM E2 in lysis and assay buffers; also called recombinant ER-LBD; source: E. coli (BL21-DE3) with pRARE, purified (Ni-NTA, size exclusion s75), 50 µM E2 added during expression
T1 sequence (looked up): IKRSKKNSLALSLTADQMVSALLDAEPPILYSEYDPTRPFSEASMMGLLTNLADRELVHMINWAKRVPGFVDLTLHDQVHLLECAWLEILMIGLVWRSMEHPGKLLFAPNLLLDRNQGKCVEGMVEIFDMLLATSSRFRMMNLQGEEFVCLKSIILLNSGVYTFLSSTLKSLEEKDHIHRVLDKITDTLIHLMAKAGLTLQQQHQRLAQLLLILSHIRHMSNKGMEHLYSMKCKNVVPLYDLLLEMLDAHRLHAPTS


Assays:
[1] = design: method as in earlier work; conditions: cited from earlier work
[2] = design: method as in earlier work; conditions: cited from earlier work; remark: listed apart in the source
ER D538G/F404L mutant = ER D538G/F404L mutant (Homo sapiens, UniProt P03372, D538G/F404L); assay: Transcriptional activity of fulvestrant resistant mutant ER; assay type: cell-based; conditions: compared to DMSO
[3] = system: ER transcriptional activity in T47D-KBluc cells; assay: Luciferase transcriptional assay; assay type: cell-based; conditions: ER transcription, luciferase reporter, 1 nM E2, 24 h treatment, ± SD of 3 biological replicates
Description: T47D-KBluc cells or PC3m-luc cells were starved for 72 h and then seeded into 96-well plates at 20,000 or 5,000 cells/well, respectively. […] One day post-treatment, the media was removed, and cells were lysed with 65 µl of 1x passive lysis buffer (Promega #E1910). Following two freeze-thaw cycles, 20 µl of lysate were transferred to a white, 96-well flat bottom plate (Corning Life Sciences Cat#3912). 50 µl of luciferase reagent (Promega. Luciferase Assay System E1500) was added to each well, and luminescence was measured using the TECAN M200 Pro plate reader. E2 (1 nM), 4-hydroxytamoxifen (OHT) (4 nM), and DMSO (0.2%) were used as controls for this assay. […] E2 alone represented 100% transcriptional activation, while the 0.2% DMSO control represented 0% transcriptional activity. OHT was used as a positive control for an active compound.

MCF7 cells = assay: PrestoBlue viability assay, MCF7; assay type: cell-based; conditions: Homo sapiens, 1 nM E2, 72 h treatment, ± SD of 3 biological replicates
Description: (§1) T47D, MCF7, TamR3, and MDA-MB-231 cells were starved for 72 h and then seeded into black clear-bottom 96-well plates (Corning Life Sciences Cat#3904) at 20,000 cells/well (T47D, MCF7, TamR3) or 5,000 cells/well (MDA-MB-231). […] 20 µl of PrestoBlue Cell Viability Reagent (Thermo Fisher A13262) was added to each well and incubated at 37 °C for 1 h. Fluorescence intensity was measured using the TECAN F500 plate reader with emission and excitation wavelengths of […], respectively.

TamR3 cells = assay: PrestoBlue viability assay, TamR3; assay type: cell-based; conditions: 1 nM E2, 72 h treatment, ± SD of 3 biological replicates
Description: as §1

T47D cells = assay: PrestoBlue viability assay, T47D; assay type: cell-based; conditions: 1 nM E2, 72 h treatment, ± SD of 3 biological replicates
Description: as §1

MDA-MB-231 cells = assay: PrestoBlue viability assay, MDA-MB-231; assay type: cell-based; conditions: dose response 50 to 0.01 µM, 1 nM E2
Description: as §1

[4] = Precipitation in MST assay buffer; assay type: physicochemical; conditions: 2% DMSO, 0.03 to 1000 µM
Description: MST was used to validate the direct binding and measure the binding affinities between the lead compounds and the recombinant ER-LBD. ER-LBD was labeled with red fluorescent dye using a Protein Labeling Kit RED-NHS 2nd Generation (Nanotemper MO-L011) according to the manufacturer’s protocol. The compounds were serially diluted 1:2 in 100% DMSO from 50 to 0.0015 mM, then added to 10 nM of labeled ER protein in the assay buffer (25 mM Tris, pH 8.4, 150 mM NaCl, 20 µM E2, 0.1 mM PMSF, 0.05% Tween20) at final concentrations of 0.03 to 1000 µM. Recombinant proteins in cell free assays are not affected by DMSO concentrations up to 10%. A final concentration of 2% DMSO was chosen for MST as the compounds required this concentration to be soluble in the assay buffer. […] The corresponding data points were removed from the analysis. […] Each protein/compound mixture was then loaded into Monolith Premium Capillaries (Nanotemper MO-K025). All assays were conducted with medium MST power and 20% excitation power. Data analysis and Kd estimation were performed with the MO Affinity Analysis software from Nanotemper.

[5] = system: ER target genes (cyclinD1, CDC2, E2F, PR, pS2) in TamR3 cells; assay: Real-time PCR of ER target genes, TamR3; assay type: cell-based; conditions: 1 µM Tamoxifen
Description: Total RNA was extracted using TRIzol, 72 h post-treatment. cDNA synthesis was conducted using the Maxima First Strand cDNA Synthesis Kit for RT-qPCR (Thermo K1641) according to the manufacturer’s protocol. RT-PCR was conducted on the QuantStudio 7 Pro instrument and expression fold change was calculated using 2−ΔΔCt method normalized to 18s.

[6] = target: T2, recombinant ER-LBD (residues 298–554) (Homo sapiens, UniProt P03372); assay: Microscale thermophoresis (MST) direct binding; conditions: averaged from three independent assays, 20 µM E2 in buffer, read-out: Kd (binding affinity to ER-LBD)
T2 construct: The ER-LBD (residues 298–554) was cloned into pET28a bacterial expression plasmid; His-tag (N); made in house; host or cells: E. coli BL21-DE3 (with pRARE)
Description: The ER-LBD (residues 298–554) was cloned into pET28a bacterial expression plasmid with an N-terminal His-tag. pET28a-His-ER and pRARE were transformed into E. coli (BL21-DE3). Bacteria were grown at 37 [drawing 1] C overnight, and then diluted 1:20 the following day in LB media and grown at 37 [drawing 2] C until the OD600 reached 0.5. Protein expression was induced with 1 mM IPTG, and 50 µM E2 was added to the media. Cells were then grown for 5 h at 25 °C. Bacterial pellets were collected by centrifugation at 13,000 rpm for 7 min. Pellets were resuspended in lysis buffer (25 mM Tris, pH 8.4, 150 mM NaCl, 20 µM E2, 1 mM DTT, 0.1 mM PMSF, cOmplete protease inhibitor (Roche)) then sonicated and centrifuged to obtain the soluble extracts. ER-LBD was purified using affinity chromatography with Ni-NTA agarose resin. The presence of the ER-LBD in eluted fractions was confirmed by SDS-PAGE and validated by mass spectrometry. The eluted protein was further purified by size exclusion chromatography (s75), and fractions containing the ER-LBD protein were pooled and concentrated using Amicon Ultra centrifugal filters (3 K MWCO).
MST was used to validate the direct binding and measure the binding affinities between the lead compounds and the recombinant ER-LBD. […]

[7] = target: T3, ER-LBD AF2 site / PGC1a coactivator peptide (Homo sapiens, UniProt P03372); assay: TR-FRET coactivator peptide displacement (LanthaScreen ER alpha Coactivator Assay); assay type: binding; conditions: 4 nM E2, 4 h
T3 construct: The assay utilizes GST-tagged ER-LBD (final concentration, 7.3 nM); purchased Thermo Fisher A15885
Description: We performed a TR-FRET assay to assess whether compounds displace the AF2 peptide from the ER-AF2 pocket using the LanthaScreen TR-FRET ER alpha Coactivator Assay Kit (Thermo Fisher, A15885). The assay utilizes GST-tagged ER-LBD (final concentration, 7.3 nM), terbium-labeled GST-antibody (final concentration, 5 nM), and a fluorescein-coactivator peptide, PGC1a (final concentration, 250 nM) in the presence of 4 nM E2. The GST-antibody, ER protein and fluorescent peptide mixture was incubated with four concentrations of compound (500 µM, 167 µM, 56 µM, 18.5 µM) for 4 h. The sample was excited at 340 nm and read at 520 nm on a Syngergy Neo2 plate reader (BioTek).

[8] = target: T4, full length ERɑ protein, estrogen binding site (EBS) (Homo sapiens, UniProt P03372); assay: E2-displacement assay (PolarScreen fluorescence polarization); conditions: fluorescence polarization, 1, 10 and 50 µM
T4 construct: full length ERɑ protein was incubated with Fluormone ES2 Green; purchased ThermoFisher A15882
Description: The E2 displacement assay was performed using the PolarScreen Estrogen Receptor Alpha Competitor Assay, Green (ThermoFisher A15882) according to the manufacturer’s protocol. In brief, full length ERɑ protein was incubated with Fluormone ES2 Green (Fluormone Tracer) in the ES2 screening buffer in a black bottom 384-well plate (Corning 3573) in the presence of either 1, 10, or 50 µM of test compounds. The final concentrations in the assay were 2% DMSO (consistent with the MST assay), 4.5 nM fluormone, and 40 nM ERɑ protein. 20 µl of the mixture were added to each well, with triplicates performed for each condition. The plate was incubated in the dark at room temperature for 4 h before fluorescence polarization was measured using a Synergy Neo2 plate reader (BioTek).

[9] = target: T1, ER-LBD (residues 298–554), recombinant, …; assay: MST; 10 nM RED-NHS labelled ER-LBD, ligand titrated; 25 mM Tris pH 8.4, 150 mM NaCl, 20 µM E2, 0.1 mM PMSF, 0.05% Tween20; medium MST power, 20% excitation power; Kd averaged from three independent assays; conditions: both partners purified

T4 sequence (P03372 whole entry): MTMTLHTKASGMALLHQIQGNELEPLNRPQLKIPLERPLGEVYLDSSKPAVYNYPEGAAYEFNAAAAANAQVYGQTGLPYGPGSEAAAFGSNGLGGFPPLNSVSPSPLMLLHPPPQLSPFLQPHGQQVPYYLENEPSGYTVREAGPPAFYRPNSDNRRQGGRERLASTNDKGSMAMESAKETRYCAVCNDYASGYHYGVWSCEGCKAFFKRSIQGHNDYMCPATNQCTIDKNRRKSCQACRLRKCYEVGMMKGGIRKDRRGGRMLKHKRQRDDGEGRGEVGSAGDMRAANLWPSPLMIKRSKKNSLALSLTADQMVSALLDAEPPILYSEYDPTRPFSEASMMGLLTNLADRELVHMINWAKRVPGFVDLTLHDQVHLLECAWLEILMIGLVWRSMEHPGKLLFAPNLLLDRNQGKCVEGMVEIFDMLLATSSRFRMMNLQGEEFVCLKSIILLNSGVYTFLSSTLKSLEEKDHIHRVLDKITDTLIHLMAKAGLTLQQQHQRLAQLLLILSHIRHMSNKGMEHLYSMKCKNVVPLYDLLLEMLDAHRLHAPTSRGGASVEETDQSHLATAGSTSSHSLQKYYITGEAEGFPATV
ER D538G/F404L mutant, sequence (P03372 whole entry F404L/D538G): as the sequence (P03372 whole entry) above, with F404L, D538G counted along it

| Molecule | IC50 ([3]; 24 h) | IC50 (MCF7 cells) | IC50 (TamR3 cells) | IC50 (T47D cells; Homo sapiens, T47D, 72 h) | Precipitation after addition of ER protein [4] | further results |
| --- | --- | --- | --- | --- | --- | --- |
| C[C@]12CC[C@@H]3c4ccc(O)cc4C[C@@H](CCCCCCCCC[S+]([O-])CCCC(F)(F)C(F)(F)F)[C@H]3[C@@H]1CC[C@@H]2O (stereo partly drawn) [fulvestrant] | – | – | – | – | – | Oral bioavailability [1]: not orally bioavailable; Solubility [2]: poor solubility; Transcriptional activity of mutant ER D538G/F404L (ER D538G/F404L mutant): increased the transcriptional activity |
| Cc1cccn2c(CNCc3cccc(NC(=O)[C@@H]4CCCO4)c3)cnc12 [VPC-260962] | 10.8 µM | 16.4 ± 3.59 µM | 27.8 ± 7.99 µM | 8.9 µM | – | IC50 [3]: 10.8 ± 2.92 µM; IC50 (T47D cells): 8.92 ± 2.81 µM; Effect on viability of ER-negative MDA-MB-231 cells (MDA-MB-231 cells): minimal impact |
| CCNC(=O)c1cccc(CNCc2cnc3c(C)cccn23)c1 [VPC-260709] | 13.8 ± 2.92 µM | – | – | 6.37 ± 3.3 µM | exhibited precipitation at 1000 and 500 µM | – |
| CC/C(=C(\c1ccccc1)c1ccc(OCCN(C)C)cc1)c1ccccc1 [Tamoxifen, tamoxifen, reference compound] | – | – | – | – | – | ER target gene expression in TamR3, tamoxifen alone [5]: increased target gene expression |
| O=C(NCc1ccc2occc2c1)Nc1ccc(OCC2CCCO2)cc1 (stereo not drawn) [VPC-260936] | 27.2 ± 6.44 µM | – | 21.8 ± 6.51 µM | 10.6 ± 4.27 µM | exhibited precipitation at 1000 and 500 µM | – |
| Cc1cccc(Oc2ccc(NC(=O)N[C@H]3C[C@H](CO)C3)cn2)c1C [VPC-260927] | 10.8 ± 3.85 µM | 19.5 ± 2.16 µM | 24.4 ± 2.48 µM | 13.8 ± 4.23 µM | – | Kd [6]: 13.2 ± 10.5 µM; Concentration at which a reduction of the FRET signal (PGC1⍺ peptide displacement) was observed [7]: 500 µM; Displacement of fluormone (fluorescent E2) from EBS [8]: displaces the fluormone at 1, 10 and 50 µM |
| CC1CC(NC(=O)Nc2ccc(Oc3cccc(F)c3F)nc2)C(=O)N1c1cnn(C)c1 (stereo not drawn) [VPC-260950] | 12.4 ± 4.57 µM | – | 21.4 ± 3.66 µM | 16 ± 6.53 µM | – | – |
| Cc1cccc(Oc2ccc(NC(=O)N3CCC(c4nnc[nH]4)C3)cn2)c1C (stereo not drawn) [VPC-260955] | 17.4 ± 1.12 µM | – | 28.7 ± 1.3 µM | 18.6 ± 1.13 µM | exhibited precipitation at 1000 and 500 µM | – |
| Cc1cccn2c(CNCc3cccc(Br)c3)cnc12 [VPC-260726] | 17.9 ± 3.51 µM | 16.6 ± 1.47 µM | 13.9 ± 1.84 µM | 11.2 ± 5.67 µM | – | – |
| Cc1cccn2c(CNCc3ccc(F)cc3F)cnc12 [VPC-260711] | 6.4 µM | 18 ± 1.3 µM | 16.8 ± 2.07 µM | 5.4 ± 1.23 µM | exhibited precipitation at 1000 and 500 µM | IC50 [3]: 6.36 ± 0.59 µM; Effect on viability of ER-negative MDA-MB-231 cells (MDA-MB-231 cells): minimal impact |
| O=C(Nc1cccc(CNCc2cnc3ccccn23)c1)C1CCCO1 (stereo not drawn) [VPC-260961] | 7.26 ± 0.73 µM | 18.7 ± 1.18 µM | 18.7 ± 1.15 µM | – | – | – |
| Cc1cccn2c(CNCc3cccc(NC(=O)[C@H]4CCCO4)c3)cnc12 [VPC-260963] | 11.9 ± 3.62 µM | 21.1 ± 4.67 µM | 16.2 ± 3.38 µM | 19 ± 5.66 µM | – | – |
| EAEEPSLLKKLLLAPANTQ [coactivator peptide PGC1α (control peptide of the MST assay)] | – | – | – | – | – | Kd [9]: 16.6 ± 2.4 µM |
